From ChEMBL document CHEMBL3244379, “Stereochemical studies on medicinal agents. 23. Synthesis and biological evaluation of 6-amino derivatives of naloxone and naltrexone” (J Med Chem, 1977)
Activity calls are given as the source filed them. The rule behind the calls is not given here.

What was measured:
[1] = target: T1, Opioid receptors; mu/kappa/delta (Homo sapiens, UniProt P41145+P41143+P35372); assay: Displacement of [3H] naloxone from opioid receptor (unknown origin) in presence of 100 mM NaCl
Mus musculus [2] = assay: Antinociceptive activity in Swiss Webster mouse at 5.12 mg/kg, sc by tail-flick assay; type: functional; details: route subcutaneous
[3] = target: T1, Opioid receptors; mu/kappa/delta; assay: Displacement of [3H] naloxone from opioid receptor (unknown origin)
Mus musculus [4] = assay: Antinociceptive activity in sc dosed Swiss Webster mouse by tail-flick assay; type: functional
Mus musculus [5] = assay: Antinociceptive activity in Swiss Webster mouse at 1.6 mg/kg, sc by tail-flick assay; type: functional, organism-based; design: dose 1.6 mg/kg

SMILES	IC50 [1]	inhibition in vivo at 5.12 mg/kg (Mus musculus [2])	IC50 [3]	ED50 (Mus musculus [4])	inhibition (Mus musculus [5])
Cl.N[C@@H]1CC[C@@]2(O)[C@H]3Cc4ccc(O)c5c4[C@@]2(CCN3CC2CC2)[C@H]1O5	7 ×10⁻¹⁰ M	27%	9.1 ×10⁻¹⁰ M		
CN1CC[C@]23c4c5ccc(O)c4O[C@H]2[C@@H](O)C=C[C@H]3[C@H]1C5.Cl [MORPHINE HYDROCHLORIDE]				0.33 mg/kg	
Cl.N[C@H]1CC[C@@]2(O)[C@H]3Cc4ccc(O)c5c4[C@@]2(CCN3CC2CC2)[C@H]1O5	9 nM	18%	2.9 nM		
C=CCN1CC[C@]23c4c5ccc(O)c4O[C@H]2[C@@H](N)CC[C@@]3(O)[C@H]1C5.Cl	1.1 ×10⁻⁷ M		1.4 ×10⁻⁷ M		inactive
C=CCN1CC[C@]23c4c5ccc(O)c4O[C@H]2[C@H](N)CC[C@@]3(O)[C@H]1C5.Cl	5.3 ×10⁻⁸ M		8.6 ×10⁻⁸ M	4.9 mg/kg	
